Laboratory results published in PMC6199744, “Development of Chemical Proteomics for the Folateome and Analysis of the Kinetoplastid Folateome” (ACS Infectious Diseases, 2018).

System: L. major lysate proteins
Test: Multitargeted bead mixture chemoproteomics, single concentration competition, proteome-wide
Format: binding

NCCOCCOCC(=O)Nc1nc2ncc(CNc3ccc(C(=O)NC(CCC(=O)O)C(=O)O)cc3)nc2c(=O)[nH]1 (stereo not shown) [compound 6]
fold change (protein LMJF.35.0420 40S RIBOSOMAL PROTEIN S3A, PUTATIVE, vehicle control = 1): 1.15
fold change relative to vehicle control (protein LMJF.35.1220, SHORT CHAIN DEHYDROGENASE, PUTATIVE): 1.09
fold change relative to vehicle control (protein LMJF.35.1380, MIT[…], BETA SUBUNIT, PUTATIVE): 1.08
fold change vs vehicle control (protein LMJF.35.1830 HYPOTHETICAL PROTEIN, CONSERVED): 0.93
fold change vs vehicle control (protein LMJF.35.3340 6-phosphogluconate dehydrogenase): 0.99
fold change (protein LMJF.35.3700 GIM5A PROTEIN, PUTATIVE,GLYCOSOMAL MEMBRANE PROTEIN, vehicle control = 1): 0.99
fold change vs vehicle control (protein LMJF.35.3760 60S RIBOSOMAL PROTEIN L27A/L29, PUTATIVE): 0.97
fold change relative to vehicle control (protein LMJF.35.3840, […] 2 SUBUNIT, PUTATIVE): 1.14
fold change vs vehicle control (protein LMJF.35.3860 T-COMPLEX PROTEIN 1, ETA SUBUNIT, PUTATIVE): 1
fold change (protein LMJF.35.4420 MIT[…] TRANSPORTER, PUTATIVE, vehicle control = 1): 1.05
fold change relative to vehicle control (protein LMJF.35.4880, HY[…], CONSERVED (TPR repeat, putative)): 1.34
fold change relative to vehicle control (protein LMJF.35.5330, ISOPENTENYL-D[…]-ISOMERASE, PUTATIVE): 1.14
fold change relative to vehicle control (protein LMJF.36.0070, STRESS-INDUCIBLE PROTEIN STI1 HOMOLOG): 1.56
fold change (protein LMJF.36.0480 HYPOTHETICAL PROTEIN, CONSERVED, vehicle control = 1): 0.98
fold change vs vehicle control (protein LMJF.36.0620 HYPOTHETICAL PROTEIN, CONSERVED): 0.81
fold change vs vehicle control (protein LMJF.36.0930 40S RIBOSOMAL PROTEIN S18, PUTATIVE): 1.15
fold change vs vehicle control (protein LMJF.36.0990 40S RIBOSOMAL PROTEIN S10, PUTATIVE): 0.99
fold change (protein LMJF.36.1140 SHORT CHAIN 3-HYDROXYACYL-COA DEHYDROGENASE, PUTATIVE, vehicle control = 1): 0.82
fold change relative to vehicle control (protein LMJF.36.1260, FRUCTOSE-1,6-BI[…]): 1.05
fold change (protein LMJF.36.1340 N-ACETYLTRANSFERASE SUBUNIT NAT1, PUTATIVE, vehicle control = 1): 0.91
fold change vs vehicle control (protein LMJF.36.1650 […] 5 SUBUNIT, PUTATIVE): 1.03
fold change relative to vehicle control (protein LMJF.36.2380, STEROL 24-C-METHYLTRANSFERASE, PUTATIVE): 1
fold change relative to vehicle control (protein LMJF.36.2660, DIHYDROLIPOAMIDE ACETYLTRANSFERASE PRECURSOR, PUTATIVE): 1
fold change vs vehicle control (protein LMJF.36.2950 SUCCINYL-COA LIGASE GDP-FORMING] BETA-CHAIN, PUTATIVE): 1.06
fold change vs vehicle control (protein LMJF.36.3210 14-3-3 PROTEIN-LIKE PROTEIN): 0.97
fold change vs vehicle control (protein LMJF.36.3410 SHORT CHAIN DEHYDROGENASE-LIKE PROTEIN): 1.22
fold change (protein LMJF.36.3460 HYPOTHETICAL PROTEIN, CONSERVED (NIPSNAP, putative), vehicle control = 1): 1.1
fold change (protein LMJF.36.3580 HYPOTHETICAL PROTEIN, CONSERVED (Protein of unknown function (DUF2009), putative), vehicle control = 1): 0.92
fold change (protein LMJF.36.3750 40S RIBOSOMAL PROTEIN S27-1, PUTATIVE, vehicle control = 1): 0.73
fold change vs vehicle control (protein LMJF.36.5010 40S RIBOSOMAL PROTEIN SA, PUTATIVE): 1.07
fold change vs vehicle control (protein LMJF.36.5130 HY[…], CONSERVED): 1.09
fold change vs vehicle control (protein LMJF.36.5150 HY[…], CONSERVED): 1.01
fold change relative to vehicle control (protein LMJF.36.5380, NADH DEHYDROGENASE, PUTATIVE): 0.94
fold change vs vehicle control (protein LMJF.36.5390 PHOSPHORIBOSYLPYROPHOSPHATE SYNTHETASE, PUTATIVE): 0.99
fold change vs vehicle control (protein LMJF.36.5620 ISOLEUCYL-TRNA SYNTHETASE, PUTATIVE): 1.03
fold change (protein LMJF.36.6430 PROTEIN TRANSPORT PROTEIN SEC23-LIKE PROTEIN, vehicle control = 1): 0.83
fold change vs vehicle control (protein LMJF.36.6760 HY[…], CONSERVED): 1.01
fold change relative to vehicle control (protein LMJF.[…], MIT[…] BETA SUBUNIT, PUTATIVE): 0.95
fold change relative to vehicle control (protein LMJF.[…], POLY(A) EXPORT PROTEIN, PUTATIVE): 1.14
fold change (vs vehicle control, protein LINJ.20.0630 CYTIDINE TR[…], PUTATIVE,CTP SYNTHASE, PUTATIVE): 1.07
fold change (vs vehicle control, protein LINJ.20.1390 COATOMER BETA SUBUNIT, PUTATIVE): 0.82
fold change (vs vehicle control, protein LMJF.05.1140 VACUOLAR ATPASE SUBUNIT-LIKE PROTEIN): 0.91
fold change (vs vehicle control, protein LMJF.07.1090 DELTA-5 FATTY ACID DESATURASE): 1
fold change (vs vehicle control, protein LMJF.09.0220 HYPOTHETICAL PROTEIN, CONSERVED): 0.97
fold change (vs vehicle control, protein LMJF.11.1030 HYPOTHETICAL PROTEIN, CONSERVED): 0.98
fold change (vs vehicle control, protein LMJF.14.0640 FATTY ACID ELONGASE, PUTATIVE): 0.92
fold change (vs vehicle control, protein LMJF.14.0705 FATTY ACID ELONGASE, PUTATIVE): 0.88
fold change (vs vehicle control, protein LMJF.14.1120 KINESIN K39, PUTATIVE): 0.71
fold change (vs vehicle control, protein LMJF.16.1610 PROHIBITIN): 1.16
fold change (vs vehicle control, protein LMJF.17.0010 HYPOTHETICAL PROTEIN, CONSERVED): 0.97
fold change (vs vehicle control, protein LMJF.18.1130 RAS-RELATED PROTEIN RAB-5, PUTATIVE): 0.75
fold change (vs vehicle control, protein LMJF.19.1420 CYSTEINE PEPTIDASE A (CPA)): 0.86
fold change (vs vehicle control, protein LMJF.21.0280 HY[…], CONSERVED): 0.84
fold change (vs vehicle control, protein LMJF.22.1560 40S RIBOSOMAL PROTEIN L14, PUTATIVE): 0.78
fold change (vs vehicle control, protein LMJF.23.1220 T-COMPLEX PROTEIN 1, GAMMA SUBUNIT, PUTATIVE): 1.06
fold change (vs vehicle control, protein LMJF.24.0370 ASPARTATE AMINOTRANSFERASE, PUTATIVE): 1.14
fold change (vs vehicle control, protein LMJF.25.1770 ENOYL-COA REDUCTASE, PUTATIVE): 1.08
fold change (vs vehicle control, protein LMJF.26.0170 60S RIBOSOMAL PROTEIN L7, PUTATIVE): 0.82
fold change (vs vehicle control, protein LMJF.26.1550 TRI[…] ALPHA SUBUNIT, MIT[…]-LIKE PROTEIN): 1.11
fold change (vs vehicle control, protein LMJF.26.1610 PROLINE OXIDASE, MIT[…]-LIKE PROTEIN): 1.02
fold change (vs vehicle control, protein LMJF.28.1950 X-PRO, DIPEPTIDYL-PEPTIDASE,SERINE PEPTIDASE, CLAN SC, FAMILY S15, PUTATIVE): 0.94
fold change (vs vehicle control, protein LMJF.31.1070 BIOTIN/LIPOATE PROTEIN LIGASE-LIKE PROTEIN): 0.89
fold change (vs vehicle control, protein LMJF.32.1370 HYPOTHETICAL PROTEIN, CONSERVED): 0.94
fold change (vs vehicle control, protein LMJF.34.0490 IMPORTIN BETA-1 SUBUNIT, PUTATIVE): 0.96
fold change (vs vehicle control, protein LMJF.34.4060 UBIQUITIN HYDROLASE, PUTATIVE,CYSTEINE PEPTIDASE, CLAN CA, FAMILY C19, PUTATIVE): 0.85
fold change (vs vehicle control, protein LMJF.36.1600 […] 1 SUBUNIT, PUTATIVE): 0.96
fold change (vs vehicle control, protein LMJF.[…] RIBOSOMAL PROTEIN S7, PUTATIVE): 1.2
